Results: patent US20100273701A1, “USE OF SALUSIN BETA ALONE OR IN COMBINATION WITH OCTREOTIDE AS A THERAPEUTIC AGENT” (priority 2007, published 2010)

Columns and labels:
HIV-1III8 = assay type: cell-based
HCMV strain AD169 = experiment: HCMV plaque formation assay in MRC-5 cells; conditions: for inhibition of HCMV plaque formation as compared to the virus control experiment: 10 micrograms per ml, 7-10 days
[1] = tested on: hepatitis B virus (HBV) ayw strain; experiment: HBV experimental assay system, HepG2-2.2.15 cells, TaqMan PCR of secreted HBV DNA; assay type: cell-based; conditions: 10 micrograms per ml, six days, combination 0.95 mole peptide 1 and 1.05 mole peptide 2
Human A549 cells = experiment: Apoptosis prevention assay (C2 ceramide, Annexin-5); assay type: cell-based; conditions: 10 micrograms per ml, 30 min pretreatment, combination 0.95 mole peptide 1 and 1.05 mole peptide 2
murine spleen cells = experiment: Th1/Th2 cytokine profiling assay; assay type: cell-based, Balb/c mice; conditions: 10 micrograms per ml, Ovalbumin restimulation, 72 hours; for production of IL-2 in murine spleen cells (induced / increased by): combination 0.95 mole peptide 1 and 1.05 mole peptide 2
[2] = tested on: Primary Human endothelial cells (HUVEC); experiment: Endothelial cell migration assay; assay type: cell-based; conditions: 10 micrograms per ml, 22 hours
HUVEC = experiment: Endothelial tube formation assay; assay type: cell-based, human; conditions: 10 micrograms per ml; 20 hours; combination peptide 1: peptide 2 1.10 mole: 0.90 mole
From the text: Positive control was vehicle only. […] Raw data were expressed as average tubule […] ±standard deviation.

Streptococcus pneumoniae = conditions: 10 micrograms per ml; read visually

Molecule: Cc1cn([C@H]2C[C@H](N=[N+]=[N-])[C@@H](CO)O2)c(=O)[nH]c1=O [AZT]
- antiviral activity of positive control compounds (HIV-1) (HIV-1III8): expected levels of antiviral activity

Molecule: Nc1nc(O)c2ncn(COC(CO)CO)c2n1 [Ganciclovir]
- antiviral activity of positive control compound (HCMV) (HCMV strain AD169; positive control): expected levels of antiviral activity

Molecule: C[C@@H](O)[C@@H]1NC(=O)[C@H](CCCCN)NC(=O)[C@@H](Cc2c[nH]c3ccccc23)NC(=O)[C@H](Cc2ccccc2)NC(=O)[C@@H](NC(=O)[C@H](N)Cc2ccccc2)CSSC[C@@H](C(=O)N[C@H](CO)[C@@H](C)O)NC1=O [Peptide 2, D-Phe-Cys-Phe-D-Trp-Lys-Thr-Cys-L-threoninol]
- inhibition of HBV replication as compared to the virus control infection [1]: 13.4%
- reduction of the ceramide-induced apoptosis on human lung cells (Human A549 cells): did not reduce
- change of the production of IL-4 in murine spleen cells (murine spleen cells): did not significantly change
- change of the production of IL-5 in murine spleen cells (murine spleen cells): did not significantly change
- change of the production of TNF-alpha in murine spleen cells (murine spleen cells): did not significantly change
- production of IFN-γ in murine spleen cells (decreased by) (murine spleen cells): 44%
- production of IL-2 in murine spleen cells (induced / increased by) (murine spleen cells): 59.5%
- increase of the migration of endothelial cells [2]: 24%
- inhibition of the tube formation of human endothelial cells (HUVEC): 8%
- inhibition of the growth of Streptococcus pneumoniae (Streptococcus pneumoniae): 100%
- inhibition of HCMV plaque formation as compared to the virus control experiment (HCMV strain AD169): 2.9%

Molecule: CC(C)(C)NC(=O)[C@@H]1CN(Cc2cccnc2)CCN1C[C@@H](O)C[C@@H](Cc1ccccc1)C(=O)N[C@H]1c2ccccc2C[C@H]1O [indinavir]
- antiviral activity of positive control compounds (HIV-1) (HIV-1III8): expected levels of antiviral activity

Molecule: Ala-lle-Phe-Ile-Phe-Ile-Arg-Trp-Leu-Leu-Lys-Leu-Gly-His-His-Gly-Arg-Ala-Pro-Pro-OH [Peptide 1]
- inhibition of HBV replication as compared to the virus control infection [1]: 44.6%
- reduction of the ceramide-induced apoptosis on human lung cells (Human A549 cells): 28.2%
- change of the production of IL-4 in murine spleen cells (murine spleen cells): did not significantly change
- change of the production of IL-5 in murine spleen cells (murine spleen cells): did not significantly change
- change of the production of TNF-alpha in murine spleen cells (murine spleen cells): did not significantly change
- production of IFN-γ in murine spleen cells (decreased by) (murine spleen cells): did not significantly change
- production of IL-2 in murine spleen cells (induced / increased by) (murine spleen cells): 156%
- inhibition of the migration of human endothelial cells ([2]; combination peptide 1: peptide 2 1.10 mole: 0.90 mole): 19%
- inhibition of the tube formation of human endothelial cells (HUVEC): 23%
- inhibition of the growth of Streptococcus pneumoniae (Streptococcus pneumoniae): no inhibitory effects
- inhibition of HCMV plaque formation as compared to the virus control experiment (HCMV strain AD169): did not inhibit
